Reference: patent US20070142437A1, “CHEMICAL COMPOUNDS” (priority 2005, published 2007)

How the values were obtained:
Assay type in all cases: biochemical
CDK4 = molecular target: T1, CDK4 (Homo sapiens, UniProt P11802); assay: CDK4 substrate phosphorylation assay (Rb protein, 33P-ATP); conditions: Inhibition of CDK4
T1 construct: made in house
Procedure: (§1) The compounds of the present invention have valuable pharmacologic properties. Different compounds from this class are particularly effective at inhibiting CDK2 and/or CDK4 enzymes at concentrations, which range from 0.0001 to 1 μM and additionally show specificity relative to other kinases. Substrate phosphorylation assays were carried out as follows:
Cyclin D1 and cyclin-dependent kinase 4 were expressed utilizing a baculovirus expression system. The catalytic activity of CDK4 protein was assayed by measuring the phosphorylation of Rb protein. A truncated Rb protein (residues 773-928 of the native retinoblastoma protein, fused to glutathione S-transferase to facilitate purification) was used as the phosphoryl acceptor. The assay conditions were 100 mM HEPES (N-[2-hydroxyethyl]piperzine-N′-[2-ethanesulfonic acid]), pH 7.5, 0.5 μM GST-Rb protein, 1 μCi/mL [^33P]-ATP (1 nM-20 μM), 5-20 mM MgCl2, 2.5 mM EDTA, 1 mM dithiotheitol, 0.2 mg/mL bovine serum albumin, 2% (v/v) dimethyl sulfoxide (DMSO), CDK4 enzyme (5-50 nM) in a final volume of 50 μL. Reactions were incubated for time periods of 10-60 min at 30° C. and terminated by the addition of 50 μL quench (1 mM ATP/100 mM EDTA, pH 7.0). Detection of protein phosphorylation was accomplished by scintillation counting following collection of protein in 96 well plates coated with Glutathione or trapping of protein onto phosphocellulose filters. Counts detected by these methodologies minus the appropriate background were assumed to be proportional to the reaction initial rates. IC50 values were determined by measuring enzyme activity in the presence of different inhibitor concentrations (0.1 nM to 50 μM). IC50s were determined by a least squares fit to the equation CPM=Vmax*(1−([I]/(K+[I])))+nsb, or pIC50s were determined by a fit to the equation CPM=nsb+(Vmax−nsb)/(1+(x/10^x−pIC50)), where nsb are the background counts.

CDK2 = molecular target: T2, CDK2 (Homo sapiens, UniProt P24941); assay: CDK2 substrate phosphorylation assay (biotinylated peptide, 32P-ATP); conditions: Inhibition of CDK2
T2 construct: made in house
Procedure: as §1
Cyclin dependent protein kinase 2 assays utilized the peptide Biotin-aminohexyl-ARRPMSPKKKA-NH2 as phosphoryl group acceptor. CDK2 was expressed utilizing a baculovirus expression system and was partially purified to comprise 20-80% of total protein, with no detectable competing reactions present. Typically, assays were performed by incubating enzyme (0.2-10 nM), with and without inhibitor, peptide substrate (1-10 nM), [g-^32P]ATP (1-20 nM), and 10-20 mM Mg^2+ for periods of time generally within the range 10-120 minutes. Reactions were terminated with 0.2-2 volumes of either 20% acetic acid or 50-100 mM EDTA buffered to pH 7 (substrate consumption <20%). The buffer employed in enzyme assay was 100 mM HEPES pH 7.5 containing 0.1 mg/mL BSA and 5% DMSO. Inhibitors were diluted in 100% DMSO prior to addition into the assay. Detection of peptide phosphorylation was accomplished by scintillation counting following either collection of peptide onto phosphocellulose filters (for reactions stopped with acetic acid), collection of peptide in wells of 96 well plates coated with Streptavidin (Pierce) (reactions were stopped with EDTA), or addition of Avidin coated Scintillant impregnated beads (Scintillation Proximity Assays from Amersham, reactions were stopped with EDTA). Counts detected by any of these methodologies minus the appropriate background (assays with additional 40 mM EDTA or lacking peptide substrate) were assumed to be proportional to the reaction initial rates, and IC50s were determined by a least squares fit to the equation CPM=Vmax*(1−([I]/(K+[I])))+nsb, or −pIC50s were determined by a fit to the equation CPM=nsb+(Vmax−nsb)/(1+(x/10^x−pIC50)), where nsb are the background counts. Filters are washed four times with 75 mM phosphoric acid. Radioactivity was determined by liquid scintillation counting.

hVEGFR2 = hVEGFR2 (Homo sapiens, UniProt P35968); assay: VEGFR2 HTRF assay; conditions: Inhibition of VEGFR2
hVEGFR2, sequence (P35968 20-1356): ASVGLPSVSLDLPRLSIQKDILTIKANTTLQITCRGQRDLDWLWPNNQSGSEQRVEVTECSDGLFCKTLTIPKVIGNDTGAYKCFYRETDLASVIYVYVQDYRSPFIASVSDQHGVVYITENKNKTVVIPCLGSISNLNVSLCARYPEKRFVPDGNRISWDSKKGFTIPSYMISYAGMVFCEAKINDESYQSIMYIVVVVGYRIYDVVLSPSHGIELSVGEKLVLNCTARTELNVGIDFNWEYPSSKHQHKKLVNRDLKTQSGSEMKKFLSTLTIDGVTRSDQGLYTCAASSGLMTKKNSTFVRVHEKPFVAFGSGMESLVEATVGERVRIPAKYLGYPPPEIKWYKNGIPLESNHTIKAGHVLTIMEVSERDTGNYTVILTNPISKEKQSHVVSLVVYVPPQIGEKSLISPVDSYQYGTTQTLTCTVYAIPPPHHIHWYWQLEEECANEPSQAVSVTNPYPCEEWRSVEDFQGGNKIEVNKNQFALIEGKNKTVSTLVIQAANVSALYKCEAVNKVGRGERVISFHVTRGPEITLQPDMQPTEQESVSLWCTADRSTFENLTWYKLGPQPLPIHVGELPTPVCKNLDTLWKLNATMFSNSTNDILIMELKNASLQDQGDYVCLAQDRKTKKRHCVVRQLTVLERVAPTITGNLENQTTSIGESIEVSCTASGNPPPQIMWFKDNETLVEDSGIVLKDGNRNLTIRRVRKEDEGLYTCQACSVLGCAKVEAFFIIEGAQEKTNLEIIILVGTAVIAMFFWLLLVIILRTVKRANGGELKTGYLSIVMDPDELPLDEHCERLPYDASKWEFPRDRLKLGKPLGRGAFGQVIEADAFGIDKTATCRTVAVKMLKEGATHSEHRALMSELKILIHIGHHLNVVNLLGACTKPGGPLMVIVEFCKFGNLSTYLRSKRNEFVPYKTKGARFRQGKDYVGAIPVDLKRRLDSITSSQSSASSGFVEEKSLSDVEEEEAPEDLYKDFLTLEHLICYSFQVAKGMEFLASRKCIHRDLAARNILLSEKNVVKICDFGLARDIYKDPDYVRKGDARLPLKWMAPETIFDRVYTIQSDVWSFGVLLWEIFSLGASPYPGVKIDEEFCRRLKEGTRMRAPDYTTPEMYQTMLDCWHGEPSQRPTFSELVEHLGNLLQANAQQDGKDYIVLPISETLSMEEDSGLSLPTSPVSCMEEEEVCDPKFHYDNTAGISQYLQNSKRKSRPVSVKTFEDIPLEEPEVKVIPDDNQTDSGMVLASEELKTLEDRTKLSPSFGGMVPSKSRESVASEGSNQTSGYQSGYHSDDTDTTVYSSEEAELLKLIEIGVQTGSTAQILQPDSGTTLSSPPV
Procedure: The compounds of the present invention elicit important and measurable pharmacological responses. Different compounds from this class are particularly effective at inhibiting VEGFR2 enzymes, as described by the VEGFR2 HTRF assay below, at concentrations, which range from 0.0001 to 1 μM.
The assays were performed in 96-well black plates. 10 nM hVEGFR2 was used to phosphorylate 0.36 μM peptide (Biotin-Ahx-EEEEYFELVAKKKK) in the presence of 75 μM ATP, 5 mM MgCl2, 0.3 mM DTT, 0.1 mg/ml BSA, and 0.1 M HEPES (pH 7.5). 10 μl 0.5 M EDTA was added to reactions as negative controls. The 50 μl kinase reaction with or without inhibitors in 5% DMSO was carried out at room temperature for 45 minutes, then stopped by 40 μl of 125 mM EDTA. 2.4 μg/ml Streptavidin-APC and 0.15 μg/ml Eu-α-pY, in the presence of 0.1 mg/ml BSA, 0.1 M HEPES (pH7.5), were added to a final volume of 140 μl. The plate was incubated for 10 min at room temperature (22° C.) and read on the Victor with the time resolved fluorescence mode by exciting at 340 nm and reading the emission at 665 nm.
• Peptide from Synpep (Dublin, Calif.) • ATP, MgCl2, DTT, BSA, HEPES, EDTA, DMSO from Sigma Streptavidin-APC from Molecular Probes (Eugene, Oreg.) • Eu-α-pY from EG&G Wallac (Gaithersburg, Md.)

T1 sequence (P11802 whole entry, species assumed): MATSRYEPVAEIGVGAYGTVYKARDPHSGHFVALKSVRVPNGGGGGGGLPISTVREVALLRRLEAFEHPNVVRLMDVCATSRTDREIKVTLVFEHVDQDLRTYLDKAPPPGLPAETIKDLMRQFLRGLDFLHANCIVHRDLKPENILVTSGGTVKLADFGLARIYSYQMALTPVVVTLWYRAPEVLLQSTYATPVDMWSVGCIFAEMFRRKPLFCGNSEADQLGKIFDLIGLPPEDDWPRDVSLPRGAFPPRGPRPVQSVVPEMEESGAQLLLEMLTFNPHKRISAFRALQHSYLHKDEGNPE
T1 sequence (P24385 whole entry partner, species assumed): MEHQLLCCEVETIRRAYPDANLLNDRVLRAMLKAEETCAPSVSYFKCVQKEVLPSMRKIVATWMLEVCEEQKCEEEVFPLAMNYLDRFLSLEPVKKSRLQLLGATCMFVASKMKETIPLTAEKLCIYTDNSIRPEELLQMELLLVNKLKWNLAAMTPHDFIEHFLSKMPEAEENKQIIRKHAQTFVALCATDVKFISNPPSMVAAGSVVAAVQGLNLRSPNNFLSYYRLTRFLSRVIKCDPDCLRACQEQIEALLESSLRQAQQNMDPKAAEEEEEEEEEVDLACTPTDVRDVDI

IC50 (CDK4) [nM] | IC50 (CDK2) [nM] | IC50 (hVEGFR2) [nM] | Compound
< 1000 | < 1000 | < 1000 | COc1cccc(-c2cnc(Nc3ccc(CN4CCN(C)CC4)cc3)o2)c1 [Example 38, 5-(3-methoxyphenyl)-N-{4-[(4-methylpiperazin-1-yl)methyl]phenyl}-1,3-oxazol-2-amine]
< 100 | < 1000 | < 1000 | CCN(CC)CCNC(=O)c1ccc(Nc2ncc(-c3cccc(OC4CCCC4)c3)o2)cc1 [Example 48, 4-({5-[3-(cyclopentyloxy)phenyl]-1,3-oxazol-2-yl}amino)-N-[2-(diethylamino)ethyl]benzamide]
< 1000 | < 10000 | < 1000 | c1cc(OC2CCCC2)cc(-c2cnc(Nc3ccc(N4CCSCC4)cc3)o2)c1 [Example 30, 5-[3-(Cyclopentyloxy)phenyl]-N-(4-thiomorpholin-4-ylphenyl)-1,3-oxazol-2-amine]
< 100 | < 1000 | < 1000 | CCN(CC)Cc1ccc(Nc2ncc(-c3cccc(OC)c3)o2)cc1 [Example 45, N-{4-[(diethylamino)methyl]phenyl}-5-(3-methoxyphenyl)-1,3-oxazol-2-amine]
< 100 | < 1000 | < 1000 | COc1cccc(-c2cnc(Nc3ccc(CCN(C)C)cc3)o2)c1 [Example 42]
< 100 | < 100 | < 1000 | CN1CCN(c2ccc(Nc3ncc(-c4cccc(OC5CCCC5)c4)o3)cn2)CC1 [Example 34, N-{5-[3-(cyclopentyloxy)phenyl]-1,3-oxazol-2-yl}-6-(4-methylpiperazin-1-yl)pyridin-3-amine]
< 100 | < 1000 | < 1000 | COc1cccc(-c2cnc(Nc3ccc(CN(C)C)cc3)o2)c1 [Example 40, N-{4-[(dimethylamino)methyl]phenyl}-5-(3-methoxyphenyl)-1,3-oxazol-2-amine]
< 100 | < 1000 | < 1000 | Cc1cc(Nc2ncc(-c3cccc(OC4CCCC4)c3)o2)cnc1N1CCN(C)CC1 [Example 37, N-{5-[3-(cyclopentyloxy)phenyl]-1,3-oxazol-2-yl}-5-methyl-6-(4-methylpiperazin-1-yl)pyridin-3-amine]
< 1000 | < 1000 | < 1000 | CCN(CC)CCNC(=O)c1ccc(Nc2ncc(-c3cccc(OC)c3)o2)cc1 [Example 46, N-[2-(diethylamino)ethyl]-4-{[5-(3-methoxyphenyl)-1,3-oxazol-2-yl]amino}benzamide]
< 1000 | < 1000 | < 1000 | COc1cccc(-c2cnc(Nc3ccc(C(=O)N4CCN(C)CC4)cc3)o2)c1 [Example 47, 5-(3-methoxyphenyl)-N-{4-[(4-methylpiperazin-1-yl)carbonyl]phenyl}-1,3-oxazol-2-amine]

More lines, now with the values behind:

Compound | IC50 (CDK4) [nM] | IC50 (CDK2) [nM] | IC50 (hVEGFR2) [nM]
CN1CCN(c2ccc(Nc3ncc(-c4cccc(OCc5ccccc5)c4)o3)cc2)CC1 [Example 15, 5-[3-(Benzyloxy)phenyl]-N-[4-(4-methylpiperazin-1-yl)phenyl]-1,3-oxazol-2-amine] | < 100 | < 1000 | < 1000
COc1cccc(-c2cnc(Nc3ccc(N4CCOCC4)cc3)o2)c1 [Example 9, 5-(3-Methoxyphenyl)-N-(4-morpholin-4-ylphenyl)-1,3-oxazol-2-amine] | < 1000 | < 1000 | < 1000
COc1cccc(-c2cnc(Nc3ccc(N4CCN(C)CC4)c(F)c3)o2)c1 [Example 20, N-[3-fluoro-4-(4-methylpiperazin-1-yl)phenyl]-5-(3-methoxyphenyl)-1,3-oxazol-2-amine] | < 100 | < 1000 | < 1000
C=C(C)COc1cccc(-c2cnc(Nc3ccc(N4CCN(C)CC4)cc3)o2)c1 [Example 16, N-[4-(4-methylpiperazin-1-yl)phenyl]-5-{3-[(2-methylprop-2-enyl)oxy]phenyl}-1,3-oxazol-2-amine] | < 100 | < 100 | < 1000
CCN1CCN(c2ccc(Nc3ncc(-c4cccc(OC)c4)o3)cc2)CC1 [Example 6, N-[4-(4-Ethylpiperazin-1-yl)phenyl]-5-(3-methoxyphenyl)-1,3-oxazol-2-amine] | < 100 | < 1000 | < 1000
CN1CCN(c2ccc(Nc3ncc(-c4cccc(OC5CCCC5)c4)o3)cc2C(F)(F)F)CC1 [Example 25, 5-[3-(Cyclopentyloxy)phenyl]-N-[4-(4-methylpiperazin-1-yl)-3-(trifluoromethyl)phenyl]-1,3-oxazol-2-amine] | < 100 | < 100 | < 1000
c1ccc(-c2cnc(Nc3ccc(CN4CCOCC4)cc3)o2)cc1 [Example 8, N-[4-(Morpholin-4-ylmethyl)phenyl]-5-phenyl-1,3-oxazol-2-amine] | < 1000 | < 10000 | < 1000
COc1cccc(-c2cnc(Nc3ccc(N4CC(C)NC(C)C4)cc3)o2)c1 (stereo not drawn) [Example 23, N-[4-(3,5-dimethylpiperazin-1-yl)phenyl]-5-(3-methoxyphenyl)-1,3-oxazol-2-amine] | < 1000 | < 100 | < 1000
Oc1cccc(-c2cnc(Nc3ccccc3)o2)c1 [Example 2, 3-(2-anilino-1,3-oxazol-5-yl)phenol] | < 1000 | < 1000 | < 1000
Cc1cc(Nc2ncc(-c3cccc(OC4CCCC4)c3)o2)ccc1N1CCN(C)CC1 [Example 27, 5-[3-(cyclopentyloxy)phenyl]-N-[3-methyl-4(4-methylpiperazin-1-yl)phenyl]-1,3-oxazol-2-amine] | < 100 | < 100 | < 100
COc1cccc(-c2cnc(Nc3ccc(CN4CCOCC4)cc3)o2)c1 [Example 11, 5-(3-Methoxyphenyl)-N-[4-(morpholin-4-ylmethyl)phenyl]-1,3-oxazol-2-amine] | < 1000 | < 1000 | < 1000
CN1CCN(c2ccc(Nc3ncc(-c4ccccc4)o3)cc2)CC1 [Example 3, N-[4-(4-methylpiperazin-1-yl)phenyl]-5-phenyl-1,3-oxazol-2-amine] | < 1000 | < 10000 | < 1000
CN1CCN(c2ccc(Nc3ncc(-c4cccc(OC5CCCCC5)c4)o3)cc2)CC1 [Example 18, 5-[3-(cyclohexyloxy)phenyl]-N-[4-(4-methylpiperazin-1-yl)phenyl]-1,3-oxazol-2-amine] | < 100 | < 100 | < 1000
